Assay results taken from PMC5301048, “Selection and early clinical evaluation of the brain‐penetrant 11β‐hydroxysteroid dehydrogenase type 1 (11β‐HSD1) inhibitor UE2343 (Xanamem™)” (British Journal of Pharmacology, 2017).
In brackets after ≈: the same amount, converted by molar mass.

What was measured:
[1] = Plasma protein binding, human plasma; type: in vitro ADME
Protocol: Plasma protein binding was determined using pooled human plasma according to the method described in WO2011135276 (Webster et al., 2011a).

CYP2C19 = target: T1, CYP2C19 (Homo sapiens, UniProt P33261); assay: Cytochrome P450 inhibition, CYP2C19; type: in vitro ADME; conditions: human liver microsomes; read-out: CYP450 isoform 2C19 IC50
T1 construct: tissue Cyprotex Discovery Limited; host or cells: human liver microsomes
T1 sequence (P33261 whole entry, canonical isoform): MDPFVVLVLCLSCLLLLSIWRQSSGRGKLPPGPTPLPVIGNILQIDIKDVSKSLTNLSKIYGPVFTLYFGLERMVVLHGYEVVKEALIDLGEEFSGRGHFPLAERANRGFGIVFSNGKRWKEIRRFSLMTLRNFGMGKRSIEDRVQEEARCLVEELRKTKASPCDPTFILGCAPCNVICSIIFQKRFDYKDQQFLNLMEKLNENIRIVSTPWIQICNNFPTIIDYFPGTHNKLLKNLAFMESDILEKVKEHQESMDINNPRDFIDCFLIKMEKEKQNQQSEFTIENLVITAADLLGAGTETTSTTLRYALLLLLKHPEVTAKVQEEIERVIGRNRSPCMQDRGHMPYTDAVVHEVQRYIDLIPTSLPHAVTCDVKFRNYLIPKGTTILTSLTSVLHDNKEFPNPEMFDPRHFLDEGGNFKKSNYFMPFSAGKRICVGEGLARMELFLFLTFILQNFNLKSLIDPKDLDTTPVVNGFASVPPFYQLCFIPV
Protocol: (§1) Testing was performed by Cyprotex Discovery Limited, Cheshire, UK. Six test compound concentrations (0.4, 1, 4, 10, 40 and 100 μM; final DMSO concentration 0.25%, final microsome concentration 0.25 mg·mL^−1) were either pre‐incubated for 30 min in the absence and presence of NADPH or underwent a 0 min pre‐incubation with human liver microsomes. At the end of the pre‐incubation period, the probe substrate for each cytochrome P450 (CYP450) isoform (30 μM) and NADPH (1 mM) were then added (final DMSO concentration 0.3%), and the samples were incubated for 5 min at 37°C. Probe substrates were as follows: 1A2 – phenacetin, 2C9 – diclofenac, 2C19 – mephenytoin, 2D6 – dextromethorphan, 3A4 – midazolam and testosterone. Samples were subjected to LC–MS/MS analysis to determine metabolite concentrations. A decrease in the formation of the metabolite compared with vehicle control was used to calculate an IC50 value (test compound concentration which produces 50% inhibition) for each experimental condition.

[2] = Pharmacokinetics in dog (i.v. and p.o.); type: in vivo; conditions: for bioavailability: p.o. 5 mg·kg^−1 vs i.v. 1 mg·kg^−1, mean ± SD
Protocol: Pharmacokinetic studies were carried out at Charles River, UK. For both i.v. and p.o. administration, compounds were prepared in 0.9% saline containing 2% DMSO (v^.v^‐1) and 38% PEG400 (v^.v^‐1). Solutions were passed through 0.22 μm filters prior to administration. Three Beagle dogs each received a single i.v. injection of compound 4 at a dose level of 1 mg·kg^−1. Following a washout period of 1 week, each animal received a single p.o. dose of compound 4 at a dose level of 5 mg·kg^−1.
After a washout period of 6 weeks, the same three dogs each received a single i.v. injection of compound 7 at a dose level of 1 mg·kg^−1. Following a washout period of 1 week, each animal received a single p.o. dose of compound 7 at a dose level of 5 mg·kg^−1.
Plasma samples were obtained up to 24 h post dose administration, and the concentration of each test item in plasma was determined using LC–MS/MS. Pharmacokinetic parameters were derived by non‐compartmental analysis using WinNonLin pharmacokinetic software.

[3] = Aqueous solubility at pH 7.4; type: physicochemical; conditions: aqueous phosphate buffer, thermodynamic from solid, pH 7.4, room temperature, mean ± SD [n]
Protocol: The concentration was quantified by HPLC with reference to a standard calibration curve. The solubility was calculated using the peak areas determined by integration of the peak found at the same retention time as the principal peak in the standard injection.

CYP450 enzymes = assay: Time-dependent cytochrome P450 inhibition; type: in vitro ADME, human; conditions: 30 min pre-incubation ± NADPH; in words
Protocol: as §1

CYP3A4 = target: T2, CYP3A4 (Homo sapiens, UniProt P08684); assay: Cytochrome P450 inhibition, CYP3A4; type: in vitro ADME; conditions: human liver microsomes; read-out: CYP450 isoform 3A4 IC50
T2 construct: tissue Cyprotex Discovery Limited; host or cells: human liver microsomes
T2 sequence (P08684 whole entry, canonical isoform): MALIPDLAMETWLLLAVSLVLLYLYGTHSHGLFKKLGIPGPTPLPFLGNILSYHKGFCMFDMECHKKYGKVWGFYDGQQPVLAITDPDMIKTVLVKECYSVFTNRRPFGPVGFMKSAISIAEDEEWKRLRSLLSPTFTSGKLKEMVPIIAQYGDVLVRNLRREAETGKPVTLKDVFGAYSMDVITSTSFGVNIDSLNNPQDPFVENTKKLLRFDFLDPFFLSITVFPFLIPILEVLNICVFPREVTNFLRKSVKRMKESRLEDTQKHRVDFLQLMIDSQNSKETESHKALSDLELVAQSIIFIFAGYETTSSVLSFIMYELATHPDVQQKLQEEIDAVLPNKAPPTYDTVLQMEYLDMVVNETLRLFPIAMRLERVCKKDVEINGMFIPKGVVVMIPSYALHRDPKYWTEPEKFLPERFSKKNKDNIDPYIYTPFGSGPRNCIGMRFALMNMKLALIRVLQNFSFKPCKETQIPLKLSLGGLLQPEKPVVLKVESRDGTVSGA
Protocol: as §1

[4] = Clinical safety and tolerability in healthy subjects; type: in vivo, human
Protocol: A double‐blind, randomized, placebo‐controlled single ascending dose study was carried out at Simbec Research Ltd, Merthyr Tydfil, UK. Each cohort consisted of six healthy male subjects and two females of non‐child bearing potential. Two male ‘dose leader’ subjects (1 active : 1 placebo) were dosed first in each cohort. The remainder of the cohort (5 active : 1 placebo) were dosed 24 h later. Dose cohorts were 2, 5, 10, 18, 25 and 35 mg. Safety, pharmacokinetic and pharmacodynamic assessments were made at pre‐determined time‐points during each part of the study. Dose escalation was dependent upon satisfactory review of the blinded safety (up to Day 6) and pharmacokinetic (up to 24 h post‐dose) data from the preceding cohort.
A double‐blind, randomized, placebo‐controlled multiple ascending dose study was carried out at Linear Clinical Research Ltd, Nedlands, Australia. Each cohort consisted of eight healthy male subjects. Each subject received UE2343 or placebo twice daily (b.i.d ) (12 hourly) in the fed state for 9 days (Day 1 to Day 9) and once on the morning of Day 10 (19 doses in total). Dose cohorts were 10, 20 and 35 mg. Dose escalation and selection was dependent upon satisfactory review of the blinded safety (up to Day 17 ± 2) and plasma pharmacokinetics (up to Day 12) data from the preceding cohort. Safety, pharmacokinetic and pharmacodynamic assessments were made at pre‐determined time‐points during each part of the study.
A non‐randomized, open label, multiple dose phase I study to determine the pharmacokinetic parameters of UE2343 in CSF was carried out at Linear Clinical Research Ltd, Nedlands, Australia. Four healthy male subjects each received 35 mg UE2343 b.i.d (12 hourly) fed (30 min after the start of a standard meal) for 3 days (Day 1 to Day 3) and once on the morning of Day 4 (seven doses in total). Plasma pharmacokinetic samples were taken from each subject on Day 1 and Day 4. A single CSF sample was taken from each subject at 5 h post‐final dose on Day 4, corresponding to the plasma Tmax (time to maximum plasma concentration).
Laboratory evaluation of clinical safety parameters was carried out using standard validated methods. Measurement of plasma pharmacodynamic markers [adrenocorticotropic hormone (ACTH), cortisol, 4‐androstenedione, testosterone and dehydroepiandrosterone sulphate (DHEA‐s)] was carried out using commercially available kits. Each method was fully validated prior to analysis. Urinary steroid metabolites were measured according to established methods (Boonen et al., 2013). UE2343 levels in plasma, urine and CSF was determined by LC–MS/MS using fully validated methods.

[5] = multiple ascending dose study, 24 subjects (active and placebo)
[6] = multiple ascending dose study, in words

O=C(c1csc(-c2cn[nH]c2)c1)N1C2CCC1CC(O)(c1ncccn1)C2 (stereo not shown) [compound 4]
Plasma protein binding (% unbound), human ([1]; human plasma, mean ± SD [n]): 30 ± 2 [2] % unbound | fraction unbound ([1]; human, pooled human plasma, read-out: bound to plasma proteins (converted)): 0.3 | IC50 (CYP2C19): 1700 nM | clearance ([2]; Beagle, plasma, iv, i.v. 1 mg·kg^−1, mean ± SD): 4.68 ± 1.12 mL/min/kg | half-life ([2]; Beagle, plasma, mean ± SD): 2.79 ± 0.84 h | Tmax ([2]; Beagle, plasma, oral, 5 mg·kg^−1): 1 h | bioavailability ([2]; Beagle, plasma, oral): > 100% | Cmax ([2]; Beagle, plasma, po, p.o. 5 mg·kg^−1, mean ± SD): 4590 ± 546 ng/mL | bioavailability ([2]; Beagle, plasma, po): 170 ± 40% | oral exposure relative to compound 7 ([2]; p.o., in words): greater than threefold higher | solubility [3]: 200 µg/mL (≈ 524 µM) | time‐dependent inhibition of CYP450 enzymes (CYP450 enzymes): No time‐dependent inhibition | IC50 (CYP3A4): > 50000 nM | safety and tolerability ([4]; 2 to 35 mg q.d and 10 to 35 mg b.i.d, in words): safe and well tolerated | intensity of TEAEs ([4]; CSF study, 35 mg b.i.d, in words): mild to moderate | increased alanine aminotransferase, subjects ([4]; CSF study, four subjects, in words): a single subject | diarrhoea, subjects [4, 5]: 2/24 | headache (most common TEAE), subjects [4, 5]: 7/24 | thrombophlebitis, subjects [4, 5]: 3/24 | intensity of TEAEs [4, 6]: mild or moderate | serious TEAEs or TEAEs leading to withdrawal [4, 6]: No serious TEAEs | number of subjects with ≥1 TEAEs ([4]; single ascending dose study): 9
